In brackets after ≈: the same amount, converted by molar mass.
Legend:
Assay type in all cases: functional
Settings in all cases: time 20-24 hrs
[1] = system: Staphylococcus aureus; experiment: Antimicrobial activity against antibiotic-resistant Staphylococcus aureus ATCC 700699 assessed as inhibition of visible growth measured after 20 to 24 hrs incubation by CLSI method
[2] = system: Staphylococcus aureus; experiment: Antimicrobial activity against Staphylococcus aureus ATCC 25923 assessed as inhibition of visible growth measured after 20 to 24 hrs incubation by CLSI method
[3] = system: Staphylococcus epidermidis; experiment: Antimicrobial activity against antibiotic-resistant Staphylococcus epidermidis ATCC 700296 assessed as inhibition of visible growth measured after 20 to 24 hrs incubation by CLSI method
[4] = system: Enterococcus faecium; experiment: Antimicrobial activity against antibiotic-resistant Enterococcus faecium ATCC 700221 assessed as inhibition of visible growth measured after 20 to 24 hrs incubation by CLSI method
[5] = system: Staphylococcus aureus; experiment: Antimicrobial activity against antibiotic-resistant Staphylococcus aureus ATCC 33591 assessed as inhibition of visible growth measured after 20 to 24 hrs incubation by CLSI method
[6] = system: Staphylococcus aureus; experiment: Antimicrobial activity against antibiotic-resistant Staphylococcus aureus ATCC BAA-2312 assessed as inhibition of visible growth measured after 20 to 24 hrs incubation by CLSI method
[7] = system: Enterococcus faecalis; experiment: Antimicrobial activity against antibiotic-susceptible Enterococcus faecalis ATCC 29212 assessed as inhibition of visible growth measured after 20 to 24 hrs incubation by CLSI method
[8] = system: Enterococcus faecalis; experiment: Antimicrobial activity against antibiotic-resistant Enterococcus faecalis ATCC 51299 assessed as inhibition of visible growth measured after 20 to 24 hrs incubation by CLSI method
[9] = system: Staphylococcus aureus; experiment: Antimicrobial activity against antibiotic-resistant Staphylococcus aureus ATCC 33592 assessed as inhibition of visible growth measured after 20 to 24 hrs incubation by CLSI method
[10] = system: Bacillus subtilis; experiment: Antimicrobial activity against antibiotic-resistant Bacillus subtilis ATCC 6623 assessed as inhibition of visible growth measured after 20 to 24 hrs incubation by CLSI method

Row | Structure (SMILES) | MIC [1] [µg/mL] | MIC [2] [µg/mL] | MIC [3] [µg/mL] | MIC [4] [µg/mL] | MIC [5] [µg/mL] | MIC [6] [µg/mL] | MIC [7] [µg/mL] | MIC [8] [µg/mL] | MIC [9] [µg/mL] | MIC [10] [µg/mL]
1 | Cc1cc(NCc2cn(-c3ccc(C(=O)O)cc3)nc2-c2ccc(F)cc2)ccc1F | 8 (≈ 19.1 µM) | 16 (≈ 38.1 µM) | 32 (≈ 76.3 µM) | > 32 | 8 (≈ 19.1 µM) | 16 (≈ 38.1 µM) | > 32 | > 32 | 16 (≈ 38.1 µM) | 4 (≈ 9.54 µM)
2 | O=C(O)c1ccc(-n2cc(CNc3ccc(F)c(C(F)(F)F)c3)c(-c3ccc(F)cc3)n2)cc1 | 8 (≈ 16.9 µM) | 4 (≈ 8.45 µM) | 8 (≈ 16.9 µM) | 16 (≈ 33.8 µM) | 2 (≈ 4.22 µM) | 4 (≈ 8.45 µM) | 16 (≈ 33.8 µM) | 16 (≈ 33.8 µM) | 4 (≈ 8.45 µM) | 2 (≈ 4.22 µM)
3 | O=C(O)c1ccc(-n2cc(CNc3cccc(OC(F)(F)F)c3)c(-c3ccc(F)c(F)c3)n2)cc1 | 4 (≈ 8.17 µM) | 4 (≈ 8.17 µM) | 8 (≈ 16.3 µM) | 4 (≈ 8.17 µM) | 1 (≈ 2.04 µM) | 2 (≈ 4.09 µM) | 8 (≈ 16.3 µM) | 8 (≈ 16.3 µM) | 4 (≈ 8.17 µM) | 1 (≈ 2.04 µM)
4 | O=C(O)c1ccc(-n2cc(CNc3cccc(Br)c3)c(-c3ccc(F)cc3)n2)cc1 | 8 (≈ 17.2 µM) | 8 (≈ 17.2 µM) | 16 (≈ 34.3 µM) | 16 (≈ 34.3 µM) | 4 (≈ 8.58 µM) | 8 (≈ 17.2 µM) | 32 (≈ 68.6 µM) | 32 (≈ 68.6 µM) | 16 (≈ 34.3 µM) | 4 (≈ 8.58 µM)
5 | O=C(O)c1ccc(-n2cc(CNc3cc(F)cc(C(F)(F)F)c3)c(-c3ccc(F)cc3)n2)cc1 | 2 (≈ 4.22 µM) | 2 (≈ 4.22 µM) | 4 (≈ 8.45 µM) | 8 (≈ 16.9 µM) | 2 (≈ 4.22 µM) | 2 (≈ 4.22 µM) | 16 (≈ 33.8 µM) | 16 (≈ 33.8 µM) | 4 (≈ 8.45 µM) | 4 (≈ 8.45 µM)
6 | O=C(O)c1ccc(-n2cc(CNc3cc(Cl)cc(Cl)c3)c(-c3ccc(F)c(F)c3)n2)cc1 | 2 (≈ 4.22 µM) | 1 (≈ 2.11 µM) | 2 (≈ 4.22 µM) | 2 (≈ 4.22 µM) | 0.5 (≈ 1.05 µM) | 1 (≈ 2.11 µM) | 4 (≈ 8.43 µM) | 8 (≈ 16.9 µM) | 2 (≈ 4.22 µM) | 0.5 (≈ 1.05 µM)
7 | O=C(O)c1ccc(-n2cc(CNc3ccc(Oc4ccccc4)cc3)c(-c3cccc(F)c3)n2)cc1 | 4 (≈ 8.34 µM) | 4 (≈ 8.34 µM) | 8 (≈ 16.7 µM) | 4 (≈ 8.34 µM) | 2 (≈ 4.17 µM) | 2 (≈ 4.17 µM) | 8 (≈ 16.7 µM) | 8 (≈ 16.7 µM) | 4 (≈ 8.34 µM) | 2 (≈ 4.17 µM)
8 | O=C(O)c1ccc(-n2cc(CNc3cc(F)c(F)c(F)c3)c(-c3ccc(F)c(F)c3)n2)cc1 | 8 (≈ 17.4 µM) | 8 (≈ 17.4 µM) | 16 (≈ 34.8 µM) | 8 (≈ 17.4 µM) | 4 (≈ 8.71 µM) | 8 (≈ 17.4 µM) | > 32 | > 32 | 8 (≈ 17.4 µM) | 4 (≈ 8.71 µM)
9 | O=C(O)c1ccc(-n2cc(CNc3cc(F)c(F)c(F)c3)c(-c3cccc(F)c3)n2)cc1 | 8 (≈ 18.1 µM) | 4 (≈ 9.06 µM) | 8 (≈ 18.1 µM) | 16 (≈ 36.2 µM) | 1 (≈ 2.27 µM) | 4 (≈ 9.06 µM) | 32 (≈ 72.5 µM) | 32 (≈ 72.5 µM) | 4 (≈ 9.06 µM) | 4 (≈ 9.06 µM)
10 | O=C(O)c1ccc(-n2cc(CNc3cc(F)c(F)c(F)c3)c(-c3ccc(F)cc3)n2)cc1 | > 32 | 32 (≈ 72.5 µM) | > 32 | > 32 | > 32 | > 32 | > 32 | > 32 | > 32 | 4 (≈ 9.06 µM)
11 | CC(C)c1ccc(NCc2cn(-c3ccc(C(=O)O)cc3)nc2-c2ccc(F)cc2)cc1 | 4 (≈ 9.31 µM) | 8 (≈ 18.6 µM) | 8 (≈ 18.6 µM) | 4 (≈ 9.31 µM) | 4 (≈ 9.31 µM) | 4 (≈ 9.31 µM) | 16 (≈ 37.3 µM) | 8 (≈ 18.6 µM) | 8 (≈ 18.6 µM) | 2 (≈ 4.66 µM)
12 | O=C(O)c1ccc(-n2cc(CNc3ccc(Oc4ccccc4)cc3)c(-c3ccc(F)cc3)n2)cc1 | 2 (≈ 4.17 µM) | 2 (≈ 4.17 µM) | 4 (≈ 8.34 µM) | 4 (≈ 8.34 µM) | 1 (≈ 2.09 µM) | 2 (≈ 4.17 µM) | 8 (≈ 16.7 µM) | 4 (≈ 8.34 µM) | 4 (≈ 8.34 µM) | 2 (≈ 4.17 µM)
13 | O=C(O)c1ccc(-n2cc(CNc3cc(Cl)cc(Cl)c3)c(-c3ccc(F)cc3)n2)cc1 | 2 (≈ 4.38 µM) | 1 (≈ 2.19 µM) | 2 (≈ 4.38 µM) | 4 (≈ 8.77 µM) | 1 (≈ 2.19 µM) | 1 (≈ 2.19 µM) | 4 (≈ 8.77 µM) | 4 (≈ 8.77 µM) | 1 (≈ 2.19 µM) | 0.5 (≈ 1.1 µM)
14 | CC(C)(C)c1ccc(NCc2cn(-c3ccc(C(=O)O)cc3)nc2-c2ccc(F)cc2)cc1 | 4 (≈ 9.02 µM) | 4 (≈ 9.02 µM) | 8 (≈ 18 µM) | 4 (≈ 9.02 µM) | 2 (≈ 4.51 µM) | 2 (≈ 4.51 µM) | 8 (≈ 18 µM) | 8 (≈ 18 µM) | 4 (≈ 9.02 µM) | 2 (≈ 4.51 µM)
15 | O=C(O)c1ccc(-n2cc(CNc3cc(Br)cc(C(F)(F)F)c3)c(-c3ccc(F)cc3)n2)cc1 | 1 (≈ 1.87 µM) | 2 (≈ 3.74 µM) | 4 (≈ 7.49 µM) | 2 (≈ 3.74 µM) | 0.5 (≈ 0.936 µM) | 1 (≈ 1.87 µM) | 4 (≈ 7.49 µM) | 2 (≈ 3.74 µM) | 1 (≈ 1.87 µM) | 1 (≈ 1.87 µM)
16 | O=C(O)c1ccc(-n2cc(CNc3cccc(C(F)(F)F)c3)c(-c3ccc(F)c(F)c3)n2)cc1 | 8 (≈ 16.9 µM) | 4 (≈ 8.45 µM) | 8 (≈ 16.9 µM) | 4 (≈ 8.45 µM) | 1 (≈ 2.11 µM) | 2 (≈ 4.22 µM) | 8 (≈ 16.9 µM) | 8 (≈ 16.9 µM) | 4 (≈ 8.45 µM) | 1 (≈ 2.11 µM)
17 | O=C(O)c1ccc(-n2cc(CNc3ccc(Cl)c(C(F)(F)F)c3)c(-c3ccc(F)c(F)c3)n2)cc1 | 2 (≈ 3.94 µM) | 1 (≈ 1.97 µM) | 4 (≈ 7.88 µM) | 2 (≈ 3.94 µM) | 0.5 (≈ 0.985 µM) | 1 (≈ 1.97 µM) | 4 (≈ 7.88 µM) | 4 (≈ 7.88 µM) | 2 (≈ 3.94 µM) | 0.5 (≈ 0.985 µM)
18 | O=C(O)c1ccc(-n2cc(CNc3ccc(F)c(F)c3)c(-c3ccc(F)cc3)n2)cc1 | 16 (≈ 37.8 µM) | > 32 | > 32 | > 32 | > 32 | > 32 | > 32 | > 32 | > 32 | 16 (≈ 37.8 µM)
19 | O=C(O)c1ccc(-n2cc(CNc3ccccc3)c(-c3ccc(F)c(F)c3)n2)cc1 | 32 (≈ 78.9 µM) | 16 (≈ 39.5 µM) | 16 (≈ 39.5 µM) | 32 (≈ 78.9 µM) | 16 (≈ 39.5 µM) | 32 (≈ 78.9 µM) | > 32 | > 32 | 32 (≈ 78.9 µM) | 8 (≈ 19.7 µM)
20 | NS(=O)(=O)c1ccc(NCc2cn(-c3ccc(C(=O)O)cc3)nc2-c2ccc(F)cc2)cc1 | > 32 | > 32 | 16 (≈ 34.3 µM) | > 32 | > 32 | > 32 | > 32 | > 32 | > 32 | > 32
21 | Cc1ccc(NCc2cn(-c3ccc(C(=O)O)cc3)nc2-c2ccc(F)cc2)cc1Cl | 4 (≈ 9.18 µM) | 32 (≈ 73.4 µM) | 32 (≈ 73.4 µM) | 16 (≈ 36.7 µM) | 16 (≈ 36.7 µM) | 16 (≈ 36.7 µM) | > 32 | > 32 | 16 (≈ 36.7 µM) | 8 (≈ 18.4 µM)
22 | COc1ccc(NCc2cn(-c3ccc(C(=O)O)cc3)nc2-c2ccc(F)cc2)cc1C(F)(F)F | 8 (≈ 16.5 µM) | 16 (≈ 33 µM) | 16 (≈ 33 µM) | 32 (≈ 65.9 µM) | 8 (≈ 16.5 µM) | 16 (≈ 33 µM) | 32 (≈ 65.9 µM) | 32 (≈ 65.9 µM) | 16 (≈ 33 µM) | 8 (≈ 16.5 µM)
23 | O=C(O)c1ccc(-n2cc(CNc3ccc(Br)c(C(F)(F)F)c3)c(-c3ccc(F)c(F)c3)n2)cc1 | 1 (≈ 1.81 µM) | 0.5 (≈ 0.905 µM) | 4 (≈ 7.24 µM) | 2 (≈ 3.62 µM) | 0.5 (≈ 0.905 µM) | 0.5 (≈ 0.905 µM) | 2 (≈ 3.62 µM) | 4 (≈ 7.24 µM) | 0.5 (≈ 0.905 µM) | 1 (≈ 1.81 µM)
24 | O=C(O)c1ccc(-n2cc(CNc3cc(C(F)(F)F)cc(C(F)(F)F)c3)c(-c3ccc(F)c(F)c3)n2)cc1 | 1 (≈ 1.85 µM) | 1 (≈ 1.85 µM) | 4 (≈ 7.39 µM) | 2 (≈ 3.69 µM) | 0.5 (≈ 0.924 µM) | 0.5 (≈ 0.924 µM) | 2 (≈ 3.69 µM) | 2 (≈ 3.69 µM) | 1 (≈ 1.85 µM) | 0.5 (≈ 0.924 µM)
25 | O=C(O)c1ccc(-n2cc(CNc3ccc(Br)cc3)c(-c3ccc(F)cc3)n2)cc1 | 16 (≈ 34.3 µM) | 8 (≈ 17.2 µM) | > 32 | > 32 | 4 (≈ 8.58 µM) | 16 (≈ 34.3 µM) | > 32 | > 32 | > 32 | 4 (≈ 8.58 µM)
26 | O=C(O)c1ccc(-n2cc(CNc3ccc(Cl)cc3)c(-c3ccc(F)c(F)c3)n2)cc1 | > 32 | > 32 | > 32 | > 32 | > 32 | > 32 | > 32 | > 32 | > 32 | 4 (≈ 9.09 µM)
27 | O=C(O)c1ccc(-n2cc(CNc3cccc(C(F)(F)F)c3)c(-c3ccc(F)cc3)n2)cc1 | 4 (≈ 8.78 µM) | 8 (≈ 17.6 µM) | 8 (≈ 17.6 µM) | 8 (≈ 17.6 µM) | 2 (≈ 4.39 µM) | 4 (≈ 8.78 µM) | 16 (≈ 35.1 µM) | 16 (≈ 35.1 µM) | 8 (≈ 17.6 µM) | 2 (≈ 4.39 µM)

Reference: ChEMBL document CHEMBL5365500, “Development and Antibacterial Properties of 4-[4-(Anilinomethyl)-3-phenylpyrazol-1-yl]benzoic Acid Derivatives as Fatty Acid Biosynthesis Inhibitors” (J Med Chem, 2023)
